Laboratory results taken from patent US11628164B2, “Composition containing salsolinol for treating liver cancer” (SUNGSHIN WOMEN'S UNIVERSITY R&DB FOUNDATION, priority 2020, dated 2023).

What was measured:
[1] = test system: DEN-induced liver cancer mouse model (male); test: DEN-induced liver cancer mouse model: liver weight, plasma AFP, tumor number, H&E; assay type: in vivo, C57BL/6 mouse
Method: The mouse used in the experiment are 7-week old male and female C57BL/6 mouse. The mouse is obtained from Orient Bio (ORIENT Bio, Gyeonggi-do Province, Korea) and is adapted in an environment that the contrast is controlled at a temperature of 22±2° C. and a humidity of 55 to 60% in 12-hour increments, and a standard diet is provided for 1 week. All animal experiments are performed in accordance with the regulations of the Laboratory Animal Ethics Committee of Sungshin Women's University. After adapting a male mouse born from the mating of the adapted mouse in the same environment for 2 weeks, a DEN-induced liver cancer mouse model is generated by a method of intraperitoneally administering a liver cancer-causing substance, diethylnitrosamine (DEN, 25 mg/kg). The salsolinol (200 mg/kg) is administered for 6 months through intraperitoneal injection three times per week from the time when the DEN-induced liver cancer mouse model (male) became 7 weeks of age. After the mouse is sacrificed, the experiment is performed. After the experiment is completed, the experimental animals are fasted for 4 hours, sacrificed with CO2 gas, and the blood collected from the heart is heparinized. And after that, centrifuge separation is performed at 3,000 rpm for 15 minutes to separate plasma. AFP (α-Fetoprotein) analysis is measured by enzyme-linked immunosorbent assay (ELISA). The separated plasma is diluted 20 times with a diluted solution, and after that, a 50 μl of standard curve reagent and plasma are inserted into a coated 96-well plate, and after that, the culturing is performed for 2 hours at room temperature. The culture medium is removed, and washing is performed 3 times with 100 μl of wash buffer. After adding 100 μl of prepared AFP conjugate to each well, the culturing is performed for 2 hours at room temperature. The culture medium is removed, and washing is performed 3 times with 100 μl of wash buffer. After adding 100 μl of reaction reagent to each well, the culturing is performed for 30 minutes in a dark place. After adding the same amount of reaction stop reagent to each well, tapping is lightly performed to mix thoroughly. With respect to the degree of reaction, after measuring the absorbance at 450 nm, the concentration of AFP is quantified by using a standard curve of a SpectraMax 190 microplate plate reader (Molecular Devices, LCC. San Jose, Calif.). The liver tissue is separated, the number of tumors is measured, and the degree of tumor formation is illustrated by a picture. After fixing 10% formaldehyde for morphological analysis, a paraffin section slide having a thickness of 4 μm is requested to be manufactured by Notus Co., Ltd. After removing paraffin No. 3 with xylene and re-dehydration in 95% and 70% alcohol, staining is performed by using Mayer's Hematoxylin. A male DEN-induced liver cancer mouse model is prepared by intraperitoneal (IP) administration of DEN 25 mg/kg, and the salsolinol 200 mg/kg is administered intraperitoneally to the model, and an effect of the salsolinol on liver cancer treatment is checked.

[2] = test system: Snai1, Vimentin genes in liver tissue; test: Real-time quantitative PCR of liver tissue, DEN-induced liver cancer mouse model; assay type: in vivo, C57BL/6 mouse; settings: DEN+SAL liver tissue, corrected with β-actin
Method: A normal mouse (M-Ctrl, n=5), a DEN-induced liver cancer mouse model (M-DEN, n=4), and a DEN-induced liver cancer mouse model treated with the salsolinol (M-DEN+SAL, n=5) are sacrificed, and liver tissues are obtained. And after that, trizol is added to lyse the liver tissues. 1 ml of a TRI reagent solution is added to the liver tissue, and after homogenization, centrifuge separation is performed at 4° C. and 12,000 rpm for 10 minutes. About 0.75 ml of the middle layer excluding the upper and lower debris is separated and put into a new tube. […]
After removing the supernatant, the RNA is washed with 75% ethanol, centrifuge separation is performed at 4° C. at 7,500 rpm for 5 minutes, and the remaining ethanol is evaporated at room temperature. The separated total RNA is quantified by using Nandrop 2000 (Thermo), and after that, cDNA is synthesized by using a reverse transcription reaction oligo dT primer and RT enzyme. By using the synthesized cDNA as a template, after addition of each primer and Bio-Rad SYBR mix (#1725270) and amplification by using a Bio-Rad Real-Time PCR instrument, analysis is performed by using quantitative software. The products amplified by real time PCR are quantified by using a comparative cycle threshold (Ct) method. […]

SK-Hep1 = test: Cell migration assay (culture-insert gap); assay type: cell-based, human; settings: 25 μM salsolinol
Method: A culture-insert (Ibidi; Martinsried, Germany) is attached to a 24-well plate to make a 500 μm interval, and then the cultured liver cancer cell lines (SK-Hep1) are dispensed so as to have a concentration of 1.5×10^5 cells. And the culturing is performed for 24 hours. After detaching the insert from the plate, each well is treated with the salsolinol so as to have a concentration of 25 μM. After the culturing is performed for 24 hours and for 48 hours, and the sample is photographed by a microscope to check the ability of migrating cells. The SK-Hep1 cells are dispensed into the culture-insert so as to have a concentration of 1.5×10^5 cells, and the culturing is performed for 24 hours. After detaching the insert from the plate, each well is treated with the salsolinol so as to have a concentration of 25 μM. After the culturing is performed for 24 hours and 48 hours, and the sample is photographed by a microscope to check the cell migration ability (refer to FIG. 3). […] When the culturing is performed for 48 hours, a large number of SK-Hep1 cells are migrated, and it is confirmed that the scratch disappears.

CC1NCCc2cc(O)c(O)cc21 (stereo not shown) [salsolinol, 6,7-dihydroxy-1-methyl-1,2,3,4-tetrahydroisoquinoline]
abnormal types of hepatocytes (H&E staining) ([1]; DEN+SAL liver tissue): not observed | decrease in number of liver cancer tissues compared with DEN model ([1]; DEN+SAL male mice, salsolinol 200 mg/kg i.p.): about 60% | weight of the liver tissue ([1]; DEN+SAL male mice, salsolinol 200 mg/kg i.p. three times per week, 6 months): slightly equal to that of the normal mouse | average number of liver cancer tissues on the liver surface ([1]; DEN+SAL male mice, salsolinol 200 mg/kg i.p., DEN model about 10): four | plasma AFP level (average) ([1]; DEN+SAL male mice, salsolinol 200 mg/kg i.p., normal mouse 50, DEN model 720 ng/ml): 200 ng/mL | liver cancer tissue on the liver surface ([1]; normal mouse administered with salsolinol alone (SAL)): no liver cancer tissue is found | Snai1 gene expression level [2]: decreased to the expression level of expression in the normal mouse | Vimentin gene expression level [2]: decreased to the expression level of expression in the normal mouse | cell migration ability (SK-Hep1; 24 hours): some cells are migrated, but the scratch portion is clearly distinguished | cell migration ability (SK-Hep1; 48 hours): scratch portion does not disappear
